This is an account of results in publication PMC12136037, “Type II kinase inhibitors that target Parkinson’s disease–associated LRRK2” (Science Advances, 2025).

What all share (assay): DSF 100 kinase selectivity screen;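 further: compound tested at 20 µM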
What all share (assay type): binding

In test [1] the target is T1, ~100 representative kinases (Homo sapiens, UniProt Q15375).
T1 construct: Recombinant protein kinase domains with a concentration of 2 μM
The settings on record: Protein EPHA7; average of three replicates. The procedure, abridged:
(§1)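 Each kinase domain, at 2 μM, is mixed with 20 μM test compound and SYPRO Orange in Hepes (20 mM, pH 7.5) with 500 mM NaCl. Temperature is then raised at 3°C/min and fluorescence-monitored unfolding yields the melting temperature change, ΔTm in degrees Celsius.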

The target of test [2] is T2, ~100 representative kinases (Homo sapiens, UniProt Q9UEE5).
T2 construct: Recombinant protein kinase domains with a concentration of 2 μM
T2 sequence (Q9UEE5 1-414): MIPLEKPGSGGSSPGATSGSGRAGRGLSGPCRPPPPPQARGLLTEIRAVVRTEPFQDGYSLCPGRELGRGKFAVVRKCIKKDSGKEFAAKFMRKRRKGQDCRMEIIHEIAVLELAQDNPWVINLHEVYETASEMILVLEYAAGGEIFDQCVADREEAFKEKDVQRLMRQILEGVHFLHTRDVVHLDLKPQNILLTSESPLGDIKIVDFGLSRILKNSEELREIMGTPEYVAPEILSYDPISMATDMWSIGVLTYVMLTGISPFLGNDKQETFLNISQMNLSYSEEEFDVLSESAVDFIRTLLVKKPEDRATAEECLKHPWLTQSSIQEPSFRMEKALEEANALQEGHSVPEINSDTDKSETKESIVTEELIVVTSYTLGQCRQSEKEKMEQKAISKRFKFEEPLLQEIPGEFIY
The conditions noted are these: Protein STK17A; DSF; average of three replicates. The method in brief:
as §1

Test [3] has as its target T3, ~100 representative kinases (Homo sapiens, UniProt Q9P289).
T3 construct: Recombinant protein kinase domains with a concentration of 2 μM
The conditions noted are these: protein MST4; average of three replicates. The method in brief:
as §1

Test [4] addresses T4, ~100 representative kinases (Homo sapiens, UniProt Q8IU85).
T4 construct: Recombinant protein kinase domains with a concentration of 2 μM
The settings on record: Protein CAMK1D; average of three replicates. The procedure, abridged: as §1

Test [5] has as its target T5, ~100 representative kinases (Homo sapiens, UniProt Q00536).
T5 construct: Recombinant protein kinase domains with a concentration of 2 μM
The settings on record: protein PCTK1; average of three replicates. The procedure, abridged: as §1

In test [6] the target is T6, ~100 representative kinases (Homo sapiens, UniProt P51955).
T6 construct: Recombinant protein kinase domains with a concentration of 2 μM
T6 sequence (P51955 1-445): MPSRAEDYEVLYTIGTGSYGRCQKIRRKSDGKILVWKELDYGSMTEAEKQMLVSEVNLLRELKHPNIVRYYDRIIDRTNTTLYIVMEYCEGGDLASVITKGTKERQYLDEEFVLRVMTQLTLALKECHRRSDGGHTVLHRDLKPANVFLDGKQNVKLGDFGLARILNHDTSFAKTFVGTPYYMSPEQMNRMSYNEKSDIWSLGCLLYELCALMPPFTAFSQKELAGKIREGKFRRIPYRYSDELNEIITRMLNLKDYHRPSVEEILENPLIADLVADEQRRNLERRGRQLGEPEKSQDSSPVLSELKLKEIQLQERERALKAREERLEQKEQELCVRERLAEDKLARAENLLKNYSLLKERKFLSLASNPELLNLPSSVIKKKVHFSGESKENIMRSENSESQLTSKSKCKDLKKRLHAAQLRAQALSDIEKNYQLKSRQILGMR
The conditions noted are these: protein NEK2; average of three replicates. The method in brief: as §1

Test [7] concerns the target T7, ~100 representative kinases (Homo sapiens, UniProt O14936).
T7 construct: Recombinant protein kinase domains with a concentration of 2 μM
T7 sequence (O14936 1-926): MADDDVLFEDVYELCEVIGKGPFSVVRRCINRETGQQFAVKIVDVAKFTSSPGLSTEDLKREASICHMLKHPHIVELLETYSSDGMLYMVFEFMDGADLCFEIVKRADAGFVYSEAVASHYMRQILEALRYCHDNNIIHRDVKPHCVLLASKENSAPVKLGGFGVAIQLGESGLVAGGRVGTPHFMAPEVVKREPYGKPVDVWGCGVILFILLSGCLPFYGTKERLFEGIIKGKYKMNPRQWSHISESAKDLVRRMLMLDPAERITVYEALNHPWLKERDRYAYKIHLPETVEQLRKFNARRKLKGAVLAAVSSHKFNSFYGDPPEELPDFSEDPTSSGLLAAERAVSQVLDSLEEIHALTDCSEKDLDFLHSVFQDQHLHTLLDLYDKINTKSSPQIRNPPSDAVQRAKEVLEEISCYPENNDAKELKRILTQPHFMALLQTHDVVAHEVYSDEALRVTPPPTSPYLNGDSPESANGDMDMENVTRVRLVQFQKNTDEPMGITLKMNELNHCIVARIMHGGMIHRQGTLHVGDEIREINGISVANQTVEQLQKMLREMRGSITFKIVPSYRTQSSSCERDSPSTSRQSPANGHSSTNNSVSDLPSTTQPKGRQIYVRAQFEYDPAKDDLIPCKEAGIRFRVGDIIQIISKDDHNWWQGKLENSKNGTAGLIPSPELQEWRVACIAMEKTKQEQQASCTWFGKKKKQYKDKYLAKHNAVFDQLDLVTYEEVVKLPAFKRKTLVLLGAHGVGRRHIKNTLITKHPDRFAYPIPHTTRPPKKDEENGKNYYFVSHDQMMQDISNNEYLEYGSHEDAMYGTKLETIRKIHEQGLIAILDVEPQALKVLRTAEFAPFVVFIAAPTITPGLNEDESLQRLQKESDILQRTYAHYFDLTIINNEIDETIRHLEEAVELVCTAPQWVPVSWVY
The settings on record: Protein CASK; average of three replicates. The method in brief: as §1

T3 sequence (Q9P289 whole entry, the tested form may be a part): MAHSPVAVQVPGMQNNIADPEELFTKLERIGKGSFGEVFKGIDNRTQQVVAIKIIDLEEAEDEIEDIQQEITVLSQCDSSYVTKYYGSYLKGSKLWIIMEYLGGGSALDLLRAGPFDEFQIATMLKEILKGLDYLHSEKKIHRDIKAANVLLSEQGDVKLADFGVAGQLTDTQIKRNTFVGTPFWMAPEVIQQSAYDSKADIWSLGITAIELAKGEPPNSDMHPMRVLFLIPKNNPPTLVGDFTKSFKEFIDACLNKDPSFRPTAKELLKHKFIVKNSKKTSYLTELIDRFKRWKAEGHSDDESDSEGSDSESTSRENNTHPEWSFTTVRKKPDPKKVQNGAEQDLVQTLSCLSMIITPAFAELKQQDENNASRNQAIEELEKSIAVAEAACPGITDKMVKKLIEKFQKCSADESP
T4 sequence (Q8IU85 whole entry, the tested form may be a part): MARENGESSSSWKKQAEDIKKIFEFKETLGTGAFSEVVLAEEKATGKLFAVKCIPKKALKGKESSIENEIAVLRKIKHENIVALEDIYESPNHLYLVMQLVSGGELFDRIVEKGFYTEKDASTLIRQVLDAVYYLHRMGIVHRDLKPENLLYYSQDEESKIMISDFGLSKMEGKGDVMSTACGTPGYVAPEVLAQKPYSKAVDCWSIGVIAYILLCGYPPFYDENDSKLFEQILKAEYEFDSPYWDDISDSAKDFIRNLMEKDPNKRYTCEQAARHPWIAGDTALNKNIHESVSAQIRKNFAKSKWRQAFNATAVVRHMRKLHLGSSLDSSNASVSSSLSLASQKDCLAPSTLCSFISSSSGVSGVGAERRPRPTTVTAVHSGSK
T1 sequence (Q15375 28-998): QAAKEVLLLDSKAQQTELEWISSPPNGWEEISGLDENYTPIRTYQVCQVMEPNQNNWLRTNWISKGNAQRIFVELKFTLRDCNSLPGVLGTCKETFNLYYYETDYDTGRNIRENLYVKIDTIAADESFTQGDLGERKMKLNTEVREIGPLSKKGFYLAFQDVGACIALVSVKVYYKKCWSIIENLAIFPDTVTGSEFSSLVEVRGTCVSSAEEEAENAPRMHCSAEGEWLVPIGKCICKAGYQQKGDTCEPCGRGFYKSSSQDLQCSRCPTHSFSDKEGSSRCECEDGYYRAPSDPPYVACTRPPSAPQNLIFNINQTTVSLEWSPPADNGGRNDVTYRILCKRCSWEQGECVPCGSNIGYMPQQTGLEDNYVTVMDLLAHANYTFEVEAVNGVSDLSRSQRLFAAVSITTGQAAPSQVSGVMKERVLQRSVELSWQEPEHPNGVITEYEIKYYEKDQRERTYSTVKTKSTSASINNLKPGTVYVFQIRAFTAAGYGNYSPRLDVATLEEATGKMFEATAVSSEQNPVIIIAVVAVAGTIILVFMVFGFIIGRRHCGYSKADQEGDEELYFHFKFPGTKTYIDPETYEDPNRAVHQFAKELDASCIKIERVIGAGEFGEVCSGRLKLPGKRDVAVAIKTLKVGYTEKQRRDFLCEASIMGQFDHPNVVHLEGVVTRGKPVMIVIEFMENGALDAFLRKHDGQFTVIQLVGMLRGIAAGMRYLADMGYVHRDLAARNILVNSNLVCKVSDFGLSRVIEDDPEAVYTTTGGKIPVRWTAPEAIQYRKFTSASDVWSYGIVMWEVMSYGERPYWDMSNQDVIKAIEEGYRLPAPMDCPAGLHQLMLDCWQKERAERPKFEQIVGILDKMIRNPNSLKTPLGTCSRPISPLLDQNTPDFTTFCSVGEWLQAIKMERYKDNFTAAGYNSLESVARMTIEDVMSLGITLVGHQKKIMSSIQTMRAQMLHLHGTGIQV
T5 sequence (Q00536 whole entry, the tested form may be a part): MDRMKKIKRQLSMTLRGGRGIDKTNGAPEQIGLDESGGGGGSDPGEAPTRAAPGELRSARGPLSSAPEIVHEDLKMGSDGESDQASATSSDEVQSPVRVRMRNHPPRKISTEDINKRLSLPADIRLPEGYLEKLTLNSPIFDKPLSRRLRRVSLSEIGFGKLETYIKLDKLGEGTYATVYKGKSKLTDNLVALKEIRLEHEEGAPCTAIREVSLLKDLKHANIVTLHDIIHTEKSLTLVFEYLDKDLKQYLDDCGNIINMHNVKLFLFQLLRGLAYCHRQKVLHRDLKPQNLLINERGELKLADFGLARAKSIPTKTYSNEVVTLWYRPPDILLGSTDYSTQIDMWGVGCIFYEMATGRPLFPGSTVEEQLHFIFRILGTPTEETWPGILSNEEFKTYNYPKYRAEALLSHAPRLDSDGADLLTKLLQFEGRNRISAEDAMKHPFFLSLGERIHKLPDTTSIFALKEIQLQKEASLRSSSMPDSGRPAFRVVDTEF

Regarding `Cc1cc(NC(=O)C2(C(=O)Nc3cccc(-c4c[nH]c5ncnc(N6CCOCC6)c45)c3)CC2)ccc1F` [Compound 20], the dTm in test [1] was -0.92 K; in test [2], 2.25 K; in test [3], 7.93 K; in test [4] it was 0.0569 K; in test [5], 8.82 K; in test [6], 1.19 K. The molecule also gave a dTm in test [7] of 0.17 K.
For `O=C(Nc1cccc(-c2c[nH]c3ncnc(N4CCOCC4)c23)c1)C1(C(=O)Nc2ccc(F)cc2F)CC1` [Compound 23], the dTm in test [1] is -2.29 K; in test [2] it was -0.31 K; in test [3], 3.92 K; in test [4] it was -1.25 K; in test [5], 4.13 K; in test [6], 1.54 K. The molecule further registered a dTm in test [7] of 0.06 K.
On to `Cc1ccc(-n2nc(C(C)(C)C)cc2NC(=O)Nc2cccc(-c3c[nH]c4ncnc(N5CCOCC5)c34)c2)cc1` [Compound 29], for which the dTm was 2.68 K in test [1]; 3.34 K in test [2]; 3.56 K in test [3]; 1.72 K in test [4]; 16.54 K in test [5]; -0.44 K in test [6]. Moreover, in test [7], the dTm amounted to 0.14 K.
Turning to `Cc1ccc(NC(=O)C2(C(=O)Nc3cccc(-c4c[nH]c5ncnc(N6CCOCC6)c45)c3)CC2)cc1` [Compound 14], the dTm is on record as -1.63 K in test [1]; -0.61 K in test [2]; 3.59 K in test [3]; -1.76 K in test [4]; 6.61 K in test [5]; 0.85 K in test [6]. In test [7], this molecule yielded a dTm of 0.19 K.
